# Several values for one entry are separate records, joined by “and”; a condition that tells them apart may be missing. Identical values can stand only once.
# Columns and labels:
# [1] = system: DSS-induced colitis; assay: Dextran sulfate sodium induced colitis: mouse model of inflammatory bowel disease; assay type: in vivo, Swiss Webster mice; details: for Mean DAI ± SEM: DSS 5% in tap water; for Mean DAI* ± SEM: DAI without weight loss parameter; for % of normal length: colon length
# Protocol: In this model of colitis, an acute inflammation of the colon was produced by administration of dextran sulfate sodium (DSS) as a 5% solution in tap water. This colitis was characterized by histological events and an influx of neutrophils, macrophages and mediators of inflammation similar to those observed with human inflammatory bowel diseases. […] The following study was conducted in accordance with protocols of Okayasu et al., Gastroenterology, 98:694-702, 1990.
# One hundred ten test animals (female, 6 week old Swiss Webster mice, 18-30 g) were divided into ten groups, selected to eliminate any statistical differences in mean group weight.
# Each animal was dosed daily (IP) with either a test substance or vehicle, starting on Day 0. Beginning on Day 1, acute colon inflammation was induced by the administration ad libitum in drinking water of dextran sulfate sodium (DSS) as a 5% solution in tap water (10 mL/mouse/day for 5-6 days), with no other fluid source for animals in the DSS arm of the study. Filtered tap water was available ad libitum except for animals receiving 5% DSS as the sole source of fluid. After four days, signs of acute disease occured with the loss of weight, diarrhea and bloody stools. Histological changes included initial shortening of the crypts, then areas of separation of the crypts and the muscularis mucosae in the absence of destructive inflammatory filtrate. After five days, pathological changes became confluent with the appearance of erosions and early hyperplastic epithelium. Inflammation scores were high with neutrophils, lymphocytes, and plasma cells in the lamina propria but sparing the epithelium.
# Test compounds were administered intraperitoneally (IP). Test compounds given during this period were evaluated for prophylactic activity and test compounds given after the disease state was established were evaluated for therapeutic activity.
# Test animals were weighed daily from Day 0 to Day 8, or until completion of the study. The total duration of the study with DSS arm of the study was varied depending on the time progress of colitis. The condition of the test animals and consistency of stools was noted.
# At the conclusion of the study, test animals were euthanized (CO2), a midline incision was made and a stool sample was obtained. The sample was placed on a slide and tested for occult blood (Quic-Cult™, Laboratory Diagnostics Co., Morganville, N.J.). Occult blood was determined by placing two drops of the reagent onto the sample and observing any color change. Occult blood presence was graded using a scoring protocol assigning a score of 0 for no color; 1 for a very light blue color (+/−) forming in >30 seconds; 2 for a blue color developing in 30 seconds or more (+); 3 for a change in color occurring in less than 30 seconds (++); and 4 for gross blood observable on the slide. The colon was gently stretched and the length from the colon-cecal junction to the end of the distal rectum was measured to the nearest 0.1 cm.
# The scores for each test animal were added and then divided by three to give a DAI score for each animal.
# [2] = system: LTB4-induced dermal inflammation; assay: Rabbit model of LTB4-induced dermal inflammation, histopathology of intradermal challenge sites; assay type: in vivo, New Zealand White Rabbits; set-up: key to Inflammation score / Edema score: 0=normal; T=trace; 1=minimal; 2=mild; 3=moderate; 4=marked; details: test article IP 60 mg/kg (dexamethasone 0.5 mg/kg); for Edema score / Inflammation score: 4 hr after challenge
smiles,measurement,setting,value
"CC[C@@H]1C(C)=NN=C(c2ccc(OC)c(OC)c2)c2cc(OC)c(OC)cc21 [(S)-tofisopam, (S)-1-(3,4-dimethoxyphenyl)-4-methyl-5-ethyl-7,8-dimethoxy-5H-2,3-benzodiazepine]",Mean colon length CM ± SEM,"[1]; 16 mg/kg IP daily, DSS 5%",8.4 ± 0.19 CM
same,Mean DAI ± SEM,[1]; 16 mg/kg IP daily,2.37 ± 0.24
same,"Mean weight ± SEM, Day 0","[1]; 16 mg/kg IP daily, DSS 5%",26.0 ± 0.4 g
same,"% weight change ± SEM, Day 8","[1]; 16 mg/kg IP daily, DSS 5%",0.0 ± 1.5%
same,"Mean weight ± SEM, Day 8","[1]; 16 mg/kg IP daily, DSS 5%",26.0 ± 0.5 g
same,"% weight change ± SEM, Day 9","[1]; 16 mg/kg IP daily, DSS 5%",1.5 ± 1.5%
same,"Mean weight ± SEM, Day 9","[1]; 16 mg/kg IP daily, DSS 5%",25.6 ± 0.5 g
same,"% weight change ± SEM, Day 10","[1]; 16 mg/kg IP daily, DSS 5%",5.4 ± 1.6%
same,"Mean weight ± SEM, Day 10","[1]; 16 mg/kg IP daily, DSS 5%",24.6 ± 0.6 g
same,Mean colon length CM ± SEM,"[1]; 32 mg/kg IP daily, DSS 5%",8.1 ± 0.19 CM
same,Mean DAI ± SEM,[1]; 32 mg/kg IP daily,3.07 ± 0.25
same,"Mean weight ± SEM, Day 0","[1]; 32 mg/kg IP daily, DSS 5%",25.9 ± 0.4 g
same,"% weight change ± SEM, Day 8","[1]; 32 mg/kg IP daily, DSS 5%",3.0 ± 0.6%
same,"Mean weight ± SEM, Day 8","[1]; 32 mg/kg IP daily, DSS 5%",25.1 ± 0.6 g
same,"% weight change ± SEM, Day 9","[1]; 32 mg/kg IP daily, DSS 5%",4.9 ± 2.4%
same,"Mean weight ± SEM, Day 9","[1]; 32 mg/kg IP daily, DSS 5%",24.6 ± 0.6 g
same,"% weight change ± SEM, Day 10","[1]; 32 mg/kg IP daily, DSS 5%",10.4 ± 3.2%
same,"Mean weight ± SEM, Day 10","[1]; 32 mg/kg IP daily, DSS 5%",23.2 ± 0.9 g
same,Mean colon length CM ± SEM,"[1]; 64 mg/kg IP daily, DSS 5%",8.2 ± 0.20 CM
same,Mean DAI ± SEM,[1]; 64 mg/kg IP daily,2.78 ± 0.27
same,"Mean weight ± SEM, Day 0","[1]; 64 mg/kg IP daily, DSS 5%",25.9 ± 0.4 g
same,"% weight change ± SEM, Day 8","[1]; 64 mg/kg IP daily, DSS 5%",1.2 ± 1.5%
same,"Mean weight ± SEM, Day 8","[1]; 64 mg/kg IP daily, DSS 5%",25.8 ± 0.6 g
same,"% weight change ± SEM, Day 9","[1]; 64 mg/kg IP daily, DSS 5%",6.9 ± 1.8%
same,"Mean weight ± SEM, Day 9","[1]; 64 mg/kg IP daily, DSS 5%",24.1 ± 0.5 g
same,"% weight change ± SEM, Day 10","[1]; 64 mg/kg IP daily, DSS 5%",10.4 ± 1.7%
same,"Mean weight ± SEM, Day 10","[1]; 64 mg/kg IP daily, DSS 5%",23.2 ± 0.6 g
same,Mean DAI* ± SEM,"[1]; 16 mg/kg IP daily, DSS 5%",2.85 ± 0.18
same,Mean DAI* ± SEM,"[1]; 32 mg/kg IP daily, DSS 5%",3.60 ± 0.30
same,Mean DAI* ± SEM,"[1]; 64 mg/kg IP daily, DSS 5%",2.94 ± 0.24
same,inhibition at 16 mg/kg,"[1]; Mus musculus, 16 mg/kg IP daily, DSS 5%, read-out: Colon shortening inhib. %",11%
same,inhibition at 32 mg/kg,"[1]; Mus musculus, 32 mg/kg IP daily, DSS 5%, read-out: Colon shortening inhib. %",4%
same,inhibition at 64 mg/kg,"[1]; Mus musculus, 64 mg/kg IP daily, DSS 5%, read-out: Colon shortening inhib. %",7%
same,% of normal length,"[1]; 16 mg/kg IP daily, DSS 5%",67.3%
same,% of normal length,"[1]; 32 mg/kg IP daily, DSS 5%",64.9%
same,% of normal length,"[1]; 64 mg/kg IP daily, DSS 5%",65.4%
same,Edema score,[2]; injection site: LTB4 500 ng,2
same,Inflammation score,[2]; injection site: LTB4 500 ng,1 and 2
same,Edema score,[2]; injection site: LTB4 1000 ng,3 and 4
same,Edema score,[2]; injection site: LTB4 2000 ng,2 and 4
same,Edema score,[2]; injection site: LTB-ap 500 ng,2 and 3
same,Edema score,[2]; injection site: LTB-ap 1000 ng,3 and 4
same,Edema score,[2]; injection site: LTB-ap 2000 ng,2 and 1 and 4
same,Edema score,[2]; injection site: Vehicle 0 ng,T and 1
same,Inflammation score,[2]; injection site: Vehicle 0 ng,T and 1
same,Histopathology finding: reduction of inflammation and edema,[2]; summary in words,no meaningful reduction in the inflammation and edema
